Measurements: patent US20250281465A1, “MOLECULES THAT ENHANCE EXTRACELLULAR VESICLE RELEASE” (priority 2022, published 2025)
“Also recorded” adds a separate entry of the source.

How the values were obtained:
[1] = test system: TLR4; assay: TLR4 agonism in murine and human HEK-TLR4 reporter cells; type: cell-based
Description: FIG. 37. TLR4 agonism assays with analogs of 2B182c in human and murine TLR4 reporter cells.

[2] = test system: mBMDCs; assay: Intracellular Ca2+ influx (Fura-2/Fura-8) in mBMDCs; type: cell-based, mouse; details: 10 μM, vs Veh 0.5% DMSO / #634
[3] = test system: mBMDCs; assay: Cell viability / cytotoxicity in mBMDCs (MTT); type: cell-based, mouse; details: for toxicity in exosome-depleted FBS medium: mBMDCs, 10 μM, 48 hours, MTT; for cytotoxicity of Ca influx inhibitors / chelators in mBMDC culture: 48 hours culture
Description: FIGS. 30A-30B. […] After 48 hours incubation, cell viability was determined by MTT assay.
mBMDCs (10^5 cells/200 μL/well) were treated with 10 and 5 μM of a test compound in 96-well plates overnight. After 18 hours of drug treatment, MTT (0.5 mg/ml) was added to each well. The cells were lysed after 6-8 hours incubation, and absorbance values at 570 and 650 nm were measured. PrestoBlue reagent (#A13261, Thermo Fisher Scientific) was used for cell viability assay in CD63 HTS as described earlier.
Cell viability assay. mBMDCs (2×10^6 cells/200 μL/well in RPMI1640 supplemented with dialyzed 10% FBS, or 1.5×10^6 cells/200 μL/well in RPMI1640 supplemented with 10% exosome depleted FBS) were treated with 10 μM of each test compound in 96-well plates. After 46-48 hours of compound treatment, MTT (0.5 mg/mL) was added to each well. The cells were lysed after overnight incubation, and absorbance values at 570 and 650 nm were measured.

[4] = test system: mBMDCs; assay: EV release from mBMDCs (differential ultracentrifugation, MRPS); details: 10 μM, 46-48 h, vs Veh

SMILES	TLR4 agonistic activity [1]	intracellular Ca^2+ influx by 634 and its SAR analogs (Fura-2) [2]	other results
Cn1c2ccc(-c3ccco3)cc2c2nc(SCC(=O)NC3CCCCC3)n(-c3ccc(O)c(O)c3)c(=O)c21 [2E255]	completely inactive	–	–
Cn1c2ccc(-c3ccco3)cc2c2nc(SCC(=O)NC3CCCCC3)n(-c3cccc(N)c3)c(=O)c21 [2G023a]	equipotent to compound 28182c	–	–
Cn1c2ccc(-c3ccco3)cc2c2nc(SCC(=O)NC3CCCCC3)n(-c3cccc(O)c3)c(=O)c21 [2G053]	equipotent to compound 28182c	–	–
CC(=O)Oc1cccc(-n2c(SCC(=O)NC3CCCCC3)nc3c4cc(-c5ccco5)ccc4n(C)c3c2=O)c1 [2G107]	potent	–	–
CCCCCCCCC(=O)Oc1cccc(-n2c(SCC(=O)NC3CCCCC3)nc3c4cc(-c5ccco5)ccc4n(C)c3c2=O)c1 [2G108]	potent	–	–
CC(=O)Nc1cccc(-n2c(SCC(=O)NC3CCCCC3)nc3c4cc(-c5ccco5)ccc4n(C)c3c2=O)c1 [2G112]	did not retain equal potency	–	–
CCCCCCCCC(=O)Nc1cccc(-n2c(SCC(=O)NC3CCCCC3)nc3c4cc(-c5ccco5)ccc4n(C)c3c2=O)c1 [2G113]	did not retain equal potency	–	–
CCCOC(=O)c1c(NS(=O)(=O)c2cccc3c2N=S=N3)sc(C)c1C [2G176, Propyl 2-(benzo[c][1,2,5]thiadiazole-4-sulfonamido)-4,5-dimethylthiophene-3-carboxylate]	–	Ca^2+ influx positive	–
CCCCCCCC/C=C\CCCCCCCC(=O)OC[C@H](COP(=O)(O)OCCNC(=O)CCCC(=O)Oc1cccc(-n2c(SCC(=O)NC3CCCCC3)nc3c4cc(-c5ccco5)ccc4n(C)c3c2=O)c1)OC(=O)CCCCC/C=C\CCCCCCCC [2G177]	slightly less potent than 2G053; also recorded: the potency at the highest concentration was better	–	–
Cc1sc(NS(=O)(=O)c2cccc3nsnc23)c(C(=O)OC(C)(C)C)c1C [2G179 h, Tert-butyl 2-(benzo[c][1,2,5]thiadiazole-4-sulfonamido)-4,5-dimethylthiophene-3-carboxylate]	–	–	toxicity in exosome-depleted FBS medium [3]: higher toxicity
COC(=O)c1c(NS(=O)(=O)c2cccc3c2N=S=N3)sc(C)c1C [2G179a, Methyl 2-(benzo[c][1,2,5]thiadiazole-4-sulfonamido)-4,5-dimethylthiophene-3-carboxylate]	–	Ca^2+ influx positive	–
CCCCCCOC(=O)c1c(NS(=O)(=O)c2cccc3nsnc23)sc(C)c1C [2G179b, Hexyl 2-(benzo[c][1,2,5]thiadiazole-4-sulfonamido)-4,5-dimethylthiophene-3-carboxylate]	–	increased intracellular Ca^2+ levels more than that of #634	toxicity in exosome-depleted FBS medium [3]: higher toxicity
Cc1sc(NS(=O)(=O)c2cccc3c2N=S=N3)c(C(=O)OC(C)C)c1C [2G179c, Isopropyl 2-(benzo[c][1,2,5]thiadiazole-4-sulfonamido)-4,5-dimethylthiophene-3-carboxylate]	–	increased intracellular Ca^2+ levels more than that of #634; also recorded: Ca^2+ influx positive	–
Cc1sc(NS(=O)(=O)c2cccc3nsnc23)c(C(=O)OCCC(C)C)c1C [2G179d, Isopentyl 2-(benzo[c][1,2,5]thiadiazole-4-sulfonamido)-4,5-dimethylthiophene-3-carboxylate]	–	increased intracellular Ca^2+ levels more than that of #634	toxicity in exosome-depleted FBS medium [3]: higher toxicity
Cc1sc(NS(=O)(=O)c2cccc3nsnc23)c(C(=O)OC2CCCCC2)c1C [2G179e, Cyclohexyl 2-(benzo[c][1,2,5]thiadiazole-4-sulfonamido)-4,5-dimethylthiophene-3-carboxylate]	–	–	toxicity in exosome-depleted FBS medium [3]: higher toxicity
Cc1sc(NS(=O)(=O)c2cccc3nsnc23)c(C(=O)OCc2ccccc2)c1C [2G179f, Benzyl 2-(benzo[c][1,2,5]thiadiazole-4-sulfonamido)-4,5-dimethylthiophene-3-carboxylate]	–	–	toxicity in exosome-depleted FBS medium [3]: higher toxicity
Cc1sc(NS(=O)(=O)c2cccc3nsnc23)c(C(=O)Oc2ccccc2)c1C [2G179g, Phenyl 2-(benzo[c][1,2,5]thiadiazole-4-sulfonamido)-4,5-dimethylthiophene-3-carboxylate]	–	lost potency; also recorded: Ca^2+ influx positive	–
Cc1cc(NS(=O)(=O)c2cccc3nsnc23)sc1C [2G182]	–	loss of potency	–
Cn1c2ccc(-c3ccco3)cc2c2nc(SCC(=O)NC3CCCCC3)n(-c3cccc(OCOP(=O)(O)O)c3)c(=O)c21 [2G202]	weakly active	–	–
CC(=O)OCOC(=O)CN(CC(=O)OCOC(C)=O)c1ccccc1OCCOc1ccccc1N(CC(=O)OCOC(C)=O)CC(=O)OCOC(C)=O [BAPTA-AM, reference compound]	–	–	cytotoxicity of Ca influx inhibitors / chelators in mBMDC culture [3]: cytotoxic; also recorded: toxic; number of EV particles released in the culture supernatant [4]: increased EV release by mBMDC; also recorded: enhanced particle release from dead and dying cells
Cc1nnsc1C(=O)Nc1ccc(-n2nc(C(F)(F)F)cc2C(F)(F)F)cc1 [BTP2, reference compound]	–	–	cytotoxicity of Ca influx inhibitors / chelators in mBMDC culture [3]: cytotoxic; number of EV particles released in the culture supernatant [4]: increased EV release by mBMDC
O=C(O)CN(CCOCCOCCN(CC(=O)O)CC(=O)O)CC(=O)O [EGTA, reference compound]	–	–	cytotoxicity of Ca influx inhibitors / chelators in mBMDC culture [3]: cytotoxic; also recorded: toxic; number of EV particles released in the culture supernatant [4]: increased EV release by mBMDC; also recorded: enhanced particle release from dead and dying cells
